# Source: patent US9593305B2, “Differentiation of pluripotent stem cells” (Janssen Biotech, Inc., priority 2008, dated 2017)
# Like-named read-outs stand apart in the source and are kept apart here.
# Legend:
# [1] = test system: H1 human embryonic stem cells; test: Secondary assay: compound combined with individual growth factors or small molecules, no activin A (Example 5, Table 4); type: cell-based; settings: for increase in SOX17 expression (% of the activin A/Wnt3a control): growth factor 50 ng/ml combined with 2.5 μM compound and Wnt3a
# Experimental: Clusters of H1 human embryonic stem cells were grown on reduced growth factor […]™ (Invitrogen; Cat #356231)-coated tissue culture plastic. Cells were passaged using collagenase (Invitrogen; Cat #Cat #17104-019) treatment and gentle scraping, washed to remove residual enzyme, and plated with even dispersal at a ratio of 1:1 (surface area) on reduced growth factor […]™-coated 96-well black plates (Packard ViewPlates; PerkinElmer; Cat #6005182) using volumes of 100 μl/well. Cells were allowed to attach as clusters and then recover log phase growth over a 1 to 3 day period, feeding daily with MEF conditioned medium supplemented with 8 ng/ml bFGF (R&D Systems; Cat #233-FB). Plates were maintained at 37° C., 5% CO2 in a humidified box throughout the duration of assay.
# Other agents tested were purchased as follows: BMP-7 (Sigma; Cat #B1434), LY294002 (Cayman; Cat 70920), PD98059, U0126, U0124 (EMD Biosciences; Cat #453710), muscimol (Tocris; Cat #0289), biuculline (Tocris; Cat #0130), sodium butyrate (Sigma; Cat #B5887). All growth factors were solubilized in PBS with 0.1% BSA (Sigma; Cat #A7888) and stored frozen at −80° C. Small molecules were solubilized in 100% DMSO (Sigma; Cat #D2650) and stored frozen at −80° C. The compounds were available as 5 mM stocks in 96-well plate format, solubilized in 100% DMSO and stored at −80° C. The compounds of the present invention were further diluted to an intermediate concentration of 0.2 mM in 50 mM HEPES (Invitrogen; Cat #15630-080), 20% DMSO and stored at 4° C. All growth factors and inhibitors were prepared in a deep well, 96-well polypropylene plate, diluted to 5× intermediate stocks in DMEM:F12 base medium at the beginning of assay and stored at 4° C.
# A secondary screening assay was conducted, testing in triplicate and feeding on alternate days over the four-day assay timeframe. Assays were initiated by aspirating culture medium from each well followed by three washes in PBS to remove residual growth factors and serum. Test volumes of 80 μl per well were added back containing DMEM:F12 base medium (Invitrogen; Cat #11330-032) supplemented with 0.625% FCS (HyClone; Cat #SH30070.03), 25 ng/ml Wnt3a (R&D Systems), and 3.125 μM compound plus 20 μl 5× stock of growth factor or small molecule to yield a final concentration of 0.5% FCS, 20 ng/ml Wnt3a, and 2.5 μM compound. […] Final assay concentrations of small molecules tested were as follows: muscimol (20 μM), PD98059 (1 μM), LY294002 (2.5 μM), 00124 (1 μM), U0126 (1 μM), sodium butyrate (0.5 mM). Positive control wells (100 μl/well) contained the same base medium supplemented with 0.5% FCS, 20 ng/ml Wnt3a and 100 ng/ml activin A. Negative control wells (100 μl/well) contained the same base medium with 0.5% FCS and 20 ng/ml Wnt3a, omitting activin A.
# On day 3, wells were aspirated and fed with 80 μl DMEM:F12 base medium supplemented with 2.5% FCS (HyClone) and 3.125 μM cyclic aniline-pyridinotriazine compound plus 20 μl 5× stock of growth factors or small molecules per well to yield a final concentration of 2% FCS and 2.5 μM compound (omitting Wnt3a) and as denoted on day one for all remaining growth factors or small molecules. Positive control wells (100 μl/well) contained the same base medium supplemented with 2% FCS and 100 ng/ml activin A, omitting Wnt3a. Negative control wells (100 μl/well) contained the same base medium with 2% FCS, omitting both activin A and Wnt3a.
# At the conclusion of four-days of culture, assay plates were washed twice with PBS, fixed with 4% paraformaldehyde (Alexis Biochemical; Cat #ALX-350-011) at room temperature for 20 minutes, then washed three times with PBS and permeabilized with 0.5% Triton X-100 (Sigma; Cat #T8760-2) for 20 minutes at room temperature. Cells were washed again three times with PBS and blocked with 4% chicken serum (Invitrogen; Cat #16110082) in PBS for 30 minutes at room temperature.
# [2] = test system: H1 human embryonic stem cells; test: Analogue screening in combination with only GDF-8, SOX17 (Example 21, Tables 18 and 19); type: cell-based; design: Sox17 Expression: % of positive control / Cell Number: % of positive control: tested at 2.5 µM; settings: compound in combination with GDF8
# Experimental: Briefly, clusters of H1 human embryonic stem cells were grown on reduced growth factor Matrigel™ (Invitrogen; Cat #356231)-coated tissue culture plastic. Cells were passaged using collagenase (Invitrogen; Cat #17104-019) treatment and gentle scraping, washed to remove residual enzyme, and plated with even dispersal at a ratio of 1:1 (surface area) on reduced growth factor […]™ (BD Biosciences; Cat #356231)-coated 96-well black plates (Packard ViewPlates; PerkinElmer; Cat #6005182) using volumes of 100 μl/well. Cells were allowed to attach and then recover log phase growth over a 1 to 3 day time period, feeding daily with MEF conditioned medium supplemented with 8 ng/ml bFGF (R&D Systems; Cat #233-FB). Plates were maintained at 37° C., 5% CO2 in a humidified box throughout the duration of assay.
# Screening was conducted using a library of the analogue compounds. Compounds from this library were made available as 5 mM stocks in 96-well plate format, solubilized in 100% DMSO (Sigma; Cat #D2650) and stored at −80° C. The library compounds were further diluted to an intermediate concentration of 0.2 mM in 50 mM HEPES (Invitrogen; Cat #15630-080), 20% DMSO and stored at 4° C. Test conditions were performed in triplicate, feeding on alternating days over a four-day assay period. Assays were initiated by aspirating culture medium from each well followed by three washes in PBS (Invitrogen; Cat #14190) to remove residual growth factors. On the first day of assay, test volumes of 200 μl per well were added to each well using DMEM:F12 base medium (Invitrogen; Cat #11330-032) supplemented with 0.5% FCS (HyClone; Cat #SH30070.03) and 200 ng/ml GDF-8 (R&D Systems, Cat #788-G8) plus 2.5 μM compound. On the third day of assay, test volumes of 100 μl per well were added to each well using DMEM:F12 base medium supplemented with 2% FCS plus 200 ng/ml GDF-8 (R&D Systems, Cat #788-G8). Positive control samples contained the same base medium supplemented with FCS and 1000 ng/ml recombinant human activin A (PeproTech; Cat #120-14) throughout the four-day assay along with Wnt3a (20 ng/ml) on days 1 and 2. Negative control samples contained DMEM:F12 base medium supplemented with FCS, adding Wnt3a on days 1 and 2 but omitting treatment with activin A.
# At the conclusion of four-days of culture, assay plates were washed twice with PBS (Invitrogen; Cat #14190), fixed with 4% paraformaldehyde (Alexis Biochemical; Cat #ALX-350-011) at room temperature for 20 minutes, then washed three times with PBS and permeabilized with 0.5% Triton X-100 (Sigma; Cat #T8760-2) for 20 minutes at room temperature. Cells were washed again three times with PBS and blocked with 4% chicken serum (Invitrogen; Cat #16110082) in PBS for 30 minutes at room temperature. Primary antibody (goat anti-human SOX17; R&D Systems; Cat #AF1924) was diluted 1:100 in 4% chicken serum and added to each well for one hour at room temperature. Alexa Fluor 488 conjugated secondary antibody (chicken anti-goat IgG; Molecular Probes; Cat #AZ1467) was diluted 1:200 in PBS and added to each sample well after washing three times with PBS. To counterstain nuclei, 4 μg/ml Hoechst 33342 (Invitrogen; Cat #H3570) was added for ten minutes at room temperature. Plates were washed once with PBS and left in 100 μl/well PBS for imaging.
# Imaging was performed using an IN Cell Analyzer 1000 (GE Healthcare) utilizing the 51008bs dichroic for cells stained with Hoechst 33342 and Alexa Fluor 488. Exposure times were optimized from positive control wells and from untreated negative control wells stained with secondary antibody alone. Images from 15 fields per well were acquired to compensate for any cell loss during the bioassay and subsequent staining procedures. Measurements for total cell number and total SOX17 intensity were obtained from each well using IN Cell Developer Toolbox 1.7 (GE Healthcare) software. […]
# [3] = agent combined with 2.5 μM compound and Wnt3a, no activin A
# [4] = relative to Activin A/Wnt3a of the same plate
molecule,measurement,setting,value
"CCCC(=O)[O-].[Na+] [sodium butyrate, reference compound]",effect on SOX17 expression,[1]; [3],inhibited or had negligible effects on SOX17 expression
"CN1CCC(C(=O)NCc2sc(Nc3cccc(C(F)(F)F)c3)nc2-c2cccnc2)CC1 [Compound 50, 1-Methyl-N-[(4-pyridin-3-yl-2-{[3-(trifluoromethyl)phenyl]amino}-1,3-thiazol-5-yl)methyl]piperidine-4-carboxamide]",Cell Number: Average Total Cell Number,[2]; four assay plates,2666
same,Sox17 Expression: Average Total Intensity,[2]; four assay plates,1.48E+07
same,Cell Number: % of positive control,[2]; [4],19.1%
same,Sox17 Expression: % of positive control,[2]; [4],4.8%
"COc1cccc(-c2cc(=O)c3ccccc3o2)c1N [PD98059, reference compound]",effect on SOX17 expression,[1]; [3],inhibited or had negligible effects on SOX17 expression
"NCc1cc(=O)[nH]o1 [muscimol, reference compound]",effect on SOX17 expression,[1]; [3],modest increase in SOX17 expression
"N#CC(=C(/N)Sc1ccccc1N)/C(C#N)=C(\N)Sc1ccccc1N [Compound U0126, U0126, reference compound]",effect on SOX17 expression,[1],inhibited or had negligible effects on SOX17 expression
"CS/C(N)=C(C#N)/C(C#N)=C(\N)SC [Compound U0124, U0124, reference compound]",effect on SOX17 expression,[1]; [3],inhibited or had negligible effects on SOX17 expression
VEGF,increase in SOX17 expression (% of the activin A/Wnt3a control),[1]; no activin A,18%
"BMP-6: member of the BMP family, R&D Systems (protein, UniProt P22004 375-513, looked up) Bone morphogenetic protein 6: SASSRRRQQSRNRSTQSQDVARVSSASDYNSSELKTACRKHELYVSFQDLGWQDWIIAPKGYAANYCDGECSFPLNAHMNATNHAIVQTLVHLMNPEYVPKPCCAPTKLNAISVLYFDDNSNVILKKYRNMVVRACGCH",effect on SOX17 expression,[1]; [3],inhibited or had negligible effects on SOX17 expression
"BMP-1: member of the BMP family, R&D Systems (protein, UniProt P13497 121-986, looked up) Bone morphogenetic protein 1: AATSRPERVWPDGVIPFVIGGNFTGSQRAVFRQAMRHWEKHTCVTFLERTDEDSYIVFTYRPCGCCSYVGRRGGGPQAISIGKNCDKFGIVVHELGHVVGFWHEHTRPDRDRHVSIVRENIQPGQEYNFLKMEPQEVESLGETYDFDSIMHYARNTFSRGIFLDTIVPKYEVNGVKPPIGQRTRLSKGDIAQARKLYKCPACGETLQDSTGNFSSPEYPNGYSAHMHCVWRISVTPGEKIILNFTSLDLYRSRLCWYDYVEVRDGFWRKAPLRGRFCGSKLPEPIVSTDSRLWVEFRSSSNWVGKGFFAVYEAICGGDVKKDYGHIQSPNYPDDYRPSKVCIWRIQVSEGFHVGLTFQSFEIERHDSCAYDYLEVRDGHSESSTLIGRYCGYEKPDDIKSTSSRLWLKFVSDGSINKAGFAVNFFKEVDECSRPNRGGCEQRCLNTLGSYKCSCDPGYELAPDKRRCEAACGGFLTKLNGSITSPGWPKEYPPNKNCIWQLVAPTQYRISLQFDFFETEGNDVCKYDFVEVRSGLTADSKLHGKFCGSEKPEVITSQYNNMRVEFKSDNTVSKKGFKAHFFSDKDECSKDNGGCQQDCVNTFGSYECQCRSGFVLHDNKHDCKEAGCDHKVTSTSGTITSPNWPDKYPSKKECTWAISSTPGHRVKLTFMEMDIESQPECAYDHLEVFDGRDAKAPVLGRFCGSKKPEPVLATGSRMFLRFYSDNSVQRKGFQASHATECGGQVRADVKTKDLYSHAQFGDNNYPGGVDCEWVIVAEEGYGVELVFQTFEVEEETDCGYDYMELFDGYDSTAPRLGRYCGSGPPEEVYSAGDSVLVKFHSDDTITKKGFHLRYTSTKFQDTLHSRK",effect on SOX17 expression,[1]; [3],inhibited or had negligible effects on SOX17 expression
"FGF4: growth factor purchased from R&D Systems (protein, UniProt P08620 31-206, looked up) Fibroblast growth factor 4: APTAPNGTLEAELERRWESLVALSLARLPVAAQPKEAAVQSGAGDYLLGIKRLRRLYCNVGIGFHLQALPDGRIGGAHADTRDSLLELSPVERGVVSIFGVASRFFVAMSSKGKLYGSPFFTDECTFKEILLPNNYNAYESYKYPGMFIALSKNGKTKKGNRVSPTMKVTHFLPRL",retention of cell numbers,"[1]; 50 ng/ml combined with 2.5 μM compound and Wnt3a, no activin A",not able to support retention of cell numbers
same,increase in SOX17 expression (% of the activin A/Wnt3a control),[1]; no activin A,17%
"BMP-7: member of the BMP family (protein, UniProt P18075 293-431, looked up) Bone morphogenetic protein 7: STGSKQRSQNRSKTPKNQEALRMANVAENSSSDQRQACKKHELYVSFRDLGWQDWIIAPEGYAAYYCEGECAFPLNSYMNATNHAIVQTLVHFINPETVPKPCCAPTQLNAISVLYFDDSSNVILKKYRNMVVRACGCH",effect on SOX17 expression,[1]; [3],inhibited or had negligible effects on SOX17 expression
